The results in this text go back to US10245264B2, “Substituted imidazo[1,2-a]pyrazines as soluble guanylate cyclase activators” (Merck Sharp & Dohme Corp., priority 2015, dated 2019).

The assay concerns the target T1, sGC α1/β1 heterodimer stably expressed in CHO-K1 cells (CHO-K1/sGC) (Homo sapiens, UniProt Q02108+Q02153).
T1 construct: expressed in transfected cells
T1 sequence (Q02108 1-690): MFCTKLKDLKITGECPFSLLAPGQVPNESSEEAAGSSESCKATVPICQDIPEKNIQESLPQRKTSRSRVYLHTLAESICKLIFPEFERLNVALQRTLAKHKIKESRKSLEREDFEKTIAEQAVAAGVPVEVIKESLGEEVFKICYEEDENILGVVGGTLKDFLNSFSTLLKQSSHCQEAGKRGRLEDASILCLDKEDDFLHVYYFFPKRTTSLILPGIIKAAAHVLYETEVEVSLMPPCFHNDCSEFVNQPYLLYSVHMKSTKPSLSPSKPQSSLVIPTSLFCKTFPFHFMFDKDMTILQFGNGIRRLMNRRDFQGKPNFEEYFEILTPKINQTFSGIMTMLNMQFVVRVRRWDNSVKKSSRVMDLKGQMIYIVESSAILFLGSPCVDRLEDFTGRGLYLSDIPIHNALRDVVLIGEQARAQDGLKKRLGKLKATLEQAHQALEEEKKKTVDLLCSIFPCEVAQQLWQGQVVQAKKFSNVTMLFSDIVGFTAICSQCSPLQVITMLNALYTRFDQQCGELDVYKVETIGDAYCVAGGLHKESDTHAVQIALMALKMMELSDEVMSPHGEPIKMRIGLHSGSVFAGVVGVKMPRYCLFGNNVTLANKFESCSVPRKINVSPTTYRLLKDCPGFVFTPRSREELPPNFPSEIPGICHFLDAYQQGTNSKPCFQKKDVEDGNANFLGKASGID
T1 sequence (Q02153 1-619): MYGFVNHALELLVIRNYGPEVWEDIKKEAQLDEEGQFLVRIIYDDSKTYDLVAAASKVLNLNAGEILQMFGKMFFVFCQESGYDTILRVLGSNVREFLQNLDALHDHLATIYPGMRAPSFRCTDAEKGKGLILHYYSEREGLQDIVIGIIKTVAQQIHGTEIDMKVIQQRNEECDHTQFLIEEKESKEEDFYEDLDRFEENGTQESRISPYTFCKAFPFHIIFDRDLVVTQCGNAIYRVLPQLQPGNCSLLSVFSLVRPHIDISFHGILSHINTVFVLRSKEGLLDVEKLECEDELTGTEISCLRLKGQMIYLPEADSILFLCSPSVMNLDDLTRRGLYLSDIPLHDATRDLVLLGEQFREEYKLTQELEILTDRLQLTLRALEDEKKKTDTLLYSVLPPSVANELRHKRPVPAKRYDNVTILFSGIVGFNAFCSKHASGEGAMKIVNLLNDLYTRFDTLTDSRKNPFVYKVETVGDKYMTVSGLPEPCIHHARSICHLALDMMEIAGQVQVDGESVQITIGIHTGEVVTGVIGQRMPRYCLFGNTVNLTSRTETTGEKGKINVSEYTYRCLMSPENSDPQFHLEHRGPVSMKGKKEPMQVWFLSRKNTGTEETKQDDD
The assay can be described thus: Cell-based sGC functional assay (CASA assay), cGMP generation by HTRF. The settings on record: for Emax: CHO-K1, maximum cGMP production of Compound A set to 100% activation, read-out: % Act. (percent activation relative to Compound A); for EC50: CHO-K1/sGC cells, 1 hr at 37° C., 4P fit, presence or absence of DETA-NO not given, read-out: IP (nM) (inflection point). An excerpt:
Biological Assay 1: Cell-Based sGC Functional Assay (CASA Assay) Rationale
sGC is a heme-containing enzyme that converts GTP to secondary messenger cGMP. Increases in cGMP levels affect several physiological processes including vasorelaxation through multiple downstream pathways. […] Heme-dependent activators (HDAs) preferentially activate sGC containing a ferrous heme group. To determine the effect of sGC activators on enzyme activity, the CASA assay was developed to monitor the generation of cGMP in a cell line that stably expresses the heterodimeric sGC protein.
A CHO-K1 cell line stably expressing the sGC α1/β1 heterodimer was generated using a standard transfection protocol. CHO-K1 cells were transfected with plasmids pIREShyghsGCα1 and pIRESneo-hsGCβ1 simultaneously using FUGENE reagent. Clones that stably express both subunits were selected with hygromycin and neomycin for ˜2 weeks. Clone #7 was chosen for the assay and was designated CHO-K1/sGC. CHO-K1/sGC cells were maintained in F-K12 medium containing 10% heat-inactivated Fetal Bovine Serum (FBS), 100 μg/mL penicillin/streptomycin, 0.5 mg/mL hygromycin and 0.25 mg/mL G418. The cells were then cryopreserved in LN2. On the day of the assay, cells were thawed and resuspended in EBSS Assay Buffer (Sigma, E3024) supplemented with 5 mM MgCl2, 10 mM HEPES (4-(2-hydroxyethyl)piperazine-1-ethanesulfonic acid) and 0.05% BSA (bovine serum albumin) (EAB) and cell density was then adjusted to 4×10^5/mL with EAB. IBMX (3-isobutyl-1-methylxanthin, 0.5 mM) was added to inhibit degradation of cGMP. Compounds were diluted from DMSO stock solutions and added to the assay at a final DMSO concentration of 2.5%. Cells were incubated with compounds in the presence and absence of 1 μM of Diethylenetriamine/nitric oxide adduct (DETA-NO; Sigma, 17018) for 1 hr at 37° C. At the end of the incubation period, the reaction was terminated and the cells were lysed with the detection reagents from Cisbio Kits. The level of intracellular cGMP was determined using an HTRF-based assay kit (CisBio, 62GM2PEC), which detects the displacement of a fluorescence labeled cGMP from its specific antibody. The cGMP produced by test compounds was directly compared to the maximum cGMP production (this value was set to equal 100% activation.) of the published sGC-HDA Compound A:
[drawing 101] (Example 1 in WO 2010/065275, published Jun. 10, 2010). The test compounds' activities were then expressed as a percentage of Compound A, the standard in every experiment. This percent activation was calculated either in the presence or absence of DETA-NO which was then plotted. IP and maximum fold induction was derived using ADA analysis software for 4P fit.
The compounds in the Examples of the instant invention had inflection points (IP) less than or equal to 10 μM and many had IPs less than or equal to about 1 μM.
For orientation: In TR-FRET formats the signal depends on donor and acceptor labels being close together.

For `CC1(c2ccc(F)cc2)C(=O)Nc2nc(-c3cn4ccnc4c(OCC4CC(F)(F)C4)n3)nc(N)c21` (stereo not shown) [Example 31A, 4-amino-2-{8-[(3,3-difluoro-cyclobutyl)methoxy]imidazo [1,2-a]pyrazin-6-yl}-5-(4-fluoro-phenyl)-5-methyl-5,7-dihydro-6H-pyrrolo[2,3-d] pyrimidin-6-one], the Emax came to 98% and the EC50 was 145 nM.

For `CC1(c2ccc(Cl)cc2)C(=O)Nc2nc(-c3cn4ccnc4c(OCc4ccccc4)n3)nc(N)c21` (stereo not shown) [Example 48A, 4-amino-2-[8-(benzyloxy)imidazo[1,2-a]pyrazin-6-yl]-5-(4-chlorophenyl)-5-methyl-5,7-dihydro-6H-pyrrolo[2,3-d] pyrimidin-6-one], the Emax turned out to be 106% and the EC50 was 26 nM.

As to `CC1(c2ccccc2)C(=O)Nc2nc(-c3cn4ccnc4c(Oc4cccc(F)c4F)n3)nc(N)c21` (stereo not shown) [Example 13B, 4-amino-2-[8-(2,3-difluoro-phenoxy)imidazo [1,2-a]pyrazin-6-yl]-5-methyl-5-phenyl-5,7-dihydro-6H-pyrrolo[2,3-d] pyrimidin-6-one], the Emax was determined as 109% and the EC50 came to 14 nM.

As to `CC1(C)C(=O)Nc2nc(-c3cn4ccnc4c(Oc4cc(F)cc(F)c4)n3)nc(N)c21` [Example 24, 4-amino-2-[8-(3,5-difluorophenoxy)imidazo[1,2-a]pyrazin-6-yl]-5,5-dimethyl-5,7-dihydro-6H-pyrrolo[2,3-d] pyrimidin-6-one], the Emax came to 89% and the EC50 is 238 nM.

`CC1(c2ccc(F)cc2)C(=O)Nc2nc(-c3cn4ccnc4c(OCCC4CC(F)(F)C4)n3)nc(N)c21` (stereo not shown) [Example 42A, 4-amino-2-{8-[2-(3,3-difluoro-cyclobutyl)ethoxy]imidazo[1,2-a]pyrazin-6-yl}-5-(4-fluorophenyl)-5-methyl-5,7-dihydro-6H-pyrrolo[2,3-d] pyrimidin-6-one]: the Emax stood at 119% and the EC50 came out at 1350 nM.

For `COCCNc1nc(-c2nc(N)c3c(n2)NC(=O)C3(C)c2ccc(F)cc2)cn2ccnc12` (stereo not shown) [Example 52A, 4-amino-5-(4-fluorophenyl)-2-{8-[(2-methoxyethyl)amino]imidazo [1,2-a]pyrazin-6-yl}-5-methyl-5,7-dihydro-6H-pyrrolo[2,3-d] pyrimidin-6-one], the Emax was determined as 101% and the EC50 came to 244 nM.

For `CC1(c2ccc(F)cc2)C(=O)Nc2nc(-c3cn4cc(C(F)(F)F)nc4c(Oc4cccc(F)c4F)n3)nc(N)c21` (stereo not shown) [Example 37A, 4-amino-2-(8-(2,3-difluoro-phenoxy)-2-(trifluoromethyl)imidazo[1,2-a]pyrazin-6-yl)-5-(4-fluorophenyl)-5-methyl-5H-pyrrolo[2,3-d] pyrimidin-6(7H)-one], the Emax was 83% and the EC50 came to 719 nM.

Turning to `CC1(c2ccccc2)C(=O)Nc2nc(-c3cn4ccnc4c(OCC(F)(F)C(F)(F)F)n3)nc(N)c21` (stereo not shown) [Example 3B, 4-amino-5-methyl-2-[8-(2,2,3,3,3-pentafluoropropoxy)imidazo[1,2-a]pyrazin-6-yl]-5-phenyl-5,7-dihydro-6H-pyrrolo [2,3-d]pyrimidin-6-one], the Emax is 97% and the EC50 worked out at 416 nM.

Take `CC1(c2ccc(Cl)cc2)C(=O)Nc2nc(-c3cn4ccnc4c(NCC4CCCCO4)n3)nc(N)c21` (single isomer, unassigned; slow eluting) [Example 71B, 4-amino-5-(4-chlorophenyl)-5-methyl-2-{8-[(tetrahydro-2H-pyran-2-ylmethyl)amino]imidazo [1,2-a]pyrazin-6-yl}-5,7-dihydro-6H-pyrrolo[2,3-d] pyrimidin-6-one (slow eluting)]: the EC50 is 143 nM. Moreover, the “% Act. (percent activation relative to Compound A)” value (maximum cGMP production of Compound A set to 100% activation) was 95%.

With `Nc1nc(-c2cn3ccnc3c(OCC(F)(F)C(F)(F)F)n2)nc2c1C(c1ccc(F)cc1)(C1CC1)C(=O)N2` (stereo not shown) [Example 14B, 4-amino-5-cyclopropyl-5-(4-fluorophenyl)-2-[8-(2,2,3,3,3-pentafluoropropoxy)imidazo[1,2-a]pyrazin-6-yl]-5,7-dihydro-6H-pyrrolo [2,3-d]pyrimidin-6-one], the Emax was 96% and the EC50 worked out at 534 nM.

As to `CC1(c2ccc(F)cc2)C(=O)Nc2nc(-c3cn4ccnc4c(Oc4ccc(F)cc4)n3)nc(N)c21` (stereo not shown) [Example 20A, 4-amino-2-[8-(4-fluorophenoxy)imidazo[1,2-a]pyrazin-6-yl]-5-(4-fluorophenyl)-5-methyl-5,7-dihydro-6H-pyrrolo[2,3-d] pyrimidin-6-one], the Emax came to 109% and the EC50 turned out to be 42 nM.

For `CC1(c2ccc(F)cc2)C(=O)Nc2nc(-c3cn4ccnc4c(Oc4ccc(F)c(F)c4F)n3)nc(N)c21` (stereo not shown) [Example 16A, 4-amino-5-(4-fluorophenyl)-5-methyl-2-[8-(2,3,4-trifluorophenoxy)imidazo[1,2-a]pyrazin-6-yl]-5,7-dihydro-6H-pyrrolo [2,3-d]pyrimidin-6-one], the Emax was determined as 89% and the EC50 amounted to 37 nM.

`CC1(c2ccc(F)cc2)C(=O)Nc2nc(-c3cn4ccnc4c(Oc4cc(F)cc(F)c4)n3)nc(N)c21` (stereo not shown) [Example 23A, 4-amino-2-[8-(3,5-difluorophenoxy)imidazo[1,2-a]pyrazin-6-yl]-5-(4-fluorophenyl)-5-methyl-5,7-dihydro-6H-pyrrolo[2,3-d] pyrimidin-6-one]: the Emax stood at 100% and the EC50 was 16 nM.

As for `CCCC(C)Oc1nc(-c2nc(N)c3c(n2)NC(=O)C3(C)c2ccc(F)cc2)cn2ccnc12` (racemic) [Example 65A, 4-amino-5-(4-fluorophenyl)-5-methyl-2-[8-(1-methyl-butoxy)imidazo [1,2-a]pyrazin-6-yl]-5,7-dihydro-6H-pyrrolo[2,3-d] pyrimidin-6-one], the Emax stood at 101% and the EC50 worked out at 461 nM.
